One assay deals with NanA of S. pneumoniae. It counts as biochemical. To be noted: pH 7.
The target in assay [1] is A/Brisbane/10/07-Like (H3N2/07-S) neuraminidase (Influenza A virus, UniProt A8W8R2). In kind it is biochemical. Conditions: pH 7, 25000 µM.
Assay [2] concerns the target B/Brisbane/60/08 (Vict/06-S) neuraminidase (Influenza B virus, UniProt C0LT34). Briefly: biochemical. To be noted: pH 7, read-out: % of max NA act. + EDTA (pH).
Assay [3] addresses B/Florida/04/06 (Yama/08-S) neuraminidase (Influenza B virus, UniProt J7JZU5). Briefly: biochemical. Conditions: pH 7, read-out: % of max NA act. + EDTA (pH).
For assay [4], the target named is A/North Carolina/39/09 (H1N1pdm/09-R) neuraminidase (Influenza A virus, UniProt C3W6G3). Conditions: pH 6, 25000 µM.
Assay [5] addresses A/Brisbane/59/07-Like (H1N1/07-R) neuraminidase (Influenza A virus, UniProt D5F1R0). Conditions: pH 6, 25000 µM.
Assay [6] addresses A/Florida/21/08 (H1N1/08-R) neuraminidase (Influenza A virus, UniProt G3LYR2). Conditions: pH 6, 25000 µM.
Assay [7] concerns the target Recombinant N1 protein A/California/04/09 (N1pdm/09-R) (Influenza A virus (H1N1), UniProt C3W5S3). To be noted: pH 6, 25000 µM.
In assay [8] the target is A/Texas/12/07 (H3N2/07-R) neuraminidase (Influenza A virus, UniProt D1FVK3).
Assay [9] deals with B/Memphis/20/96 (Vict/96-R) neuraminidase (Influenza B virus, UniProt C7FPS7). Conditions: pH 7, 25000 µM.
For assay [10], the target named is Parainfluenza virus Type 2 NA (Human parainfluenza 2 virus, UniProt P25465). To be noted: pH 5.
In assay [11] the target is S. pneumoniae ATCC 6305 (Strep 6) NanA (Streptococcus pneumoniae, UniProt P62575). To be noted: pH 7.
For assay [12], the target named is S. pneumoniae ATCC 49619 (Strep 4) NanA (Streptococcus pneumoniae, UniProt P62575). To be noted: pH 7.
In assay [13] the target is A/California/07/09 (H1N1pdm/09-S) neuraminidase (Influenza A virus, UniProt C3W6G3). Briefly: biochemical. Conditions: pH 6, read-out: % of max NA act. + EDTA (pH).
Assay [14] addresses Recombinant N1 protein A/California/04/09 (N1pdm/09-S) (Influenza A virus (H1N1), UniProt C3W5S3). In words: biochemical. Conditions: pH 6, read-out: % of max NA act. + EDTA (pH).
In assay [15] the target is Recombinant N1 protein A/Anhui/01/05 (N1/05-S) (Influenza A virus, UniProt D0PQ82). Briefly: biochemical. Conditions: pH 6, read-out: % of max NA act. + EDTA (pH).
A further assay has as its system influenza virus. It counts as binding.
The subject of another assay is H3N2/07-R. In kind it is binding, influenza A.
For another assay, the system named is NA of influenza. In kind it is biochemical. Conditions: pH 7.

Consider `O=S(=O)(O)CCCNC1CCCCC1` [CAPS, N-cyclohexyl-3-aminopropanesulfonic acid], for which the “NanA inhibition by sulfonic acid-containing buffer” value with NanA of S. pneumoniae is “susceptibility to CHES and CAPS inhibition”.

With `O=C(O)CN(CCN(CC(=O)O)CC(=O)O)CC(=O)O` [EDTA, ethylenediaminetetraacetic acid], the “% of max NA act. + EDTA (pH)” value turned out to be 50% in [1]; 63% in assay [4]; 54% in assay [5]; 36% in assay [6]; 94% in assay [7]; 61% in [8] (pH 7, 25000 µM). The “% of max NA act. + EDTA (pH)” value worked out at 25% in assay [9], 27% in assay [10], 112% in assay [11] and 108% in [12]. The activity at 25000 µM in [2] worked out at 92%; in assay [3] it was 88%; in assay [13], 44%; in assay [14], 94%; in assay [15], 43%.

Consider “MBL: mannose-binding lectin, recombinant host protein used as capturing agent”, for which, in the assay with influenza virus, the “limit of detection: virus dilution at which virus is captured” value was 270-450 fold dilution and the “viral capture, ranking of receptors” value is “best capturing factor among all mannose binding receptors”. Moreover, the “limit of detection: virus dilution” value with H3N2/07-R stood at 450 fold dilution.

Turning to `O=S(=O)(O)CCNC1CCCCC1` [CHES, N-cyclohexyl-2-aminoethanesulfonic acid], the “NA enzymatic activity of influenza in presence of buffer” value with NA of influenza was “substantially resistant”. Besides, in the assay with NanA of S. pneumoniae, the “NanA activity of S. pneumoniae in presence of buffer” value is listed as “severely reduced”; the “NanA inhibition by sulfonic acid-containing buffer” value is “susceptibility to CHES and CAPS inhibition”.

A word on the IC50: it is the concentration at which inhibition is half-maximal. `CC(=O)N[C@H]1[C@H]([C@H](O)[C@H](O)CO)OC(C(=O)O)=C[C@@H]1N=C(N)N` [Zan, Zanamivir]: the IC50 in assay [8] is 2.6 nM.

B1: Fetuin: highly sialylated protein isolated from bovine serum, used as capturing agent (protein, UniProt P12763 19-359, looked up)
Alpha-2-HS-glycoprotein: IPLDPVAGYKEPACDDPDTEQAALAAVDYINKHLPRGYKHTLNQIDSVKVWPRRPTGEVYDIEIDTLETTCHVLDPTPLANCSVRQQTQHAVEGDCDIHVLKQDGQFSVLFTKCDSSPDSAEDVRKLCPDCPLLAPLNDSRVVHAVEVALATFNAESNGSYLQLVEISRAQFVPLPVSVSVEFAVAATDCIAKEVVDPTKCNLLAEKQYGFCKGSVIQKALGGEDVRVTCTLFQTQPVIPQPQPDGAEAEAPSAVPDAAGPTPSAAGPPVASVVVGPSVVAVPLPLHRAHYDLRHTFSGVASVESSSGEAFHVGKTPIVGQPSIPGGPVRLCPGRIRYFKI
For the molecule B1, the “limit of detection: virus dilution at which virus is captured” value in the assay on influenza virus is listed as 150-450 fold dilution. Besides, the “limit of detection: virus dilution” value with H3N2/07-R was found to be 30 fold dilution.

These data come from US10408836B2 (priority 2013, dated 2019).
